What was measured:
[1] = Area under the curve determinations of plasma levels in rats (rrAUC); format: in vivo; conditions: rapid rat AUC of the drug (parent) in plasma; oral 10 mg/kg, fasted rats, blood 0.5-6 h post-dosing
Procedure: To gain insight into the pharmacokinetic properties of the compounds of formula (I), plasma levels of the compounds in rats were determined according to the protocol described in Korfmacher, W. A,; Cox, K. A.; Ng, K. J.; Veals, J.; Hsieh, Y.; Wainhaus, S.; Broske, L; Prelusky, D.; Nomeir, A.; White, R. E. Rapid Commun. Mass Spectrorn, 2001, 15, 335. Briefly, rats, after an overnight fast, were dosed orally with the test compound at a dose of 10 mg/kg in a 5 mL/kg dose volume. Blood was collected at 0.5, 1, 2, 3, 4, and 6 h post-dosing. Mass spectrometry using high performance liquid chromatography was used to identify and measure the concentrations of the test compounds in the plasma at the various time points. The parent ion of each test compound was used to identify and quantitate the compounds in plasma.

[2] = test system: TNF-α production from human whole blood; experiment: Inhibition of TNF-α production from human whole blood (hWBA); format: cell-based; conditions: human whole blood diluted 1:1, 1 h pre-incubation, LPS, 3.5 h, TNF-α by ELISA; N/A = Not Active
Procedure: The compounds' ability to inhibit TACE activity can also be determined in human whole blood using the assay conditions described n Example 15 below.
Human whole blood was diluted 1:1 with serum free medium (RPMI, L-glutamine, Pen-Strep, HEPES) and incubated with a test compound in a final volume of 360 μl for 1 h at 37° C. Forty microliters of LPS (10 μg/mL) was then added. Supernatant was collected after 3.5 h incubation and the concentration of TNF-α was determined by ELISA (R&D Systems). The concentration of the test compound which inhibits 50% of the amount of TNF-α from the untreated control was determined.

Row | Structure (SMILES) | PK (rrAUC) parent [1] | IC50 [2] [nM]
1 | COc1ccc2c(c1F)C(=O)N(C[C@@]1(c3cc4nc(N5C(=O)CCC5C)ccc4o3)NC(=O)N(COC(=O)C(C)(C)C)C1=O)C2 (some centres unmarked) [Compound 9] | 4557 nM·h | 192
2 | COc1ccc2c(c1)C(=O)N(C[C@@]1(c3cc4nc(N5C(=O)CCC5C)ccc4o3)NC(=O)N(COC(=O)C(C)(C)C)C1=O)C2 (some centres unmarked) [Compound 10] | 1202 nM·h | 266
3 | COc1ccc2c(c1F)C(=O)N(C[C@@]1(c3cc4c(C)nccc4o3)NC(=O)N(COC(=O)C(C)(C)C)C1=O)C2 [Compound 11] | 1827 nM·h | 235
4 | COc1ccc2c(c1F)C(=O)N(C[C@@]1(c3cc4cnc(C)cc4o3)NC(=O)N(COC(=O)C(C)(C)C)C1=O)C2 [Compound 12] | 45,213 nM · h | 187
5 | COc1ccc2c(c1)C(=O)N(C[C@@]1(C#Cc3ccc4c(=O)[nH][nH]c4c3)NC(=O)N(COC(=O)C(C)(C)C)C1=O)C2 [Compound 13] | 0 nM·h | 213
6 | COc1ccc2c(c1F)C(=O)N(C[C@@]1(C#Cc3ccc4c(=O)[nH][nH]c4c3)NC(=O)N(COC(=O)C(C)(C)C)C1=O)C2 [Compound 14] | 0 nM·h | 275
7 | COc1ccc2c(c1)C(=O)N(C[C@@]1(C#Cc3ccc(C(N)=O)cc3)NC(=O)N(COC(=O)C(C)(C)C)C1=O)C2 [Compound 15] | 0 nM·h | 188
8 | COc1ccc2c(c1F)C(=O)N(C[C@@]1(c3cc4nc(-c5cn[nH]c5)ccc4o3)NC(=O)N(COC(=O)C(C)(C)C)C1=O)C2 [Compound 16] | 249 nM·h | 141
9 | COc1ccc2c(c1)C(=O)N(C[C@@]1(c3cc4nc(-c5c(C)nn(C)c5C)ccc4o3)NC(=O)N(COC(=O)C(C)(C)C)C1=O)C2 [Compound 17] | 2005 nM·h | 626
10 | COc1ccc2c(c1F)C(=O)N(C[C@@]1(c3cc4nc(N)ccc4o3)NC(=O)N(COC(=O)C(C)(C)C)C1=O)C2 [Compound 18] | 351 nM·h | 178
11 | COc1ccc2c(c1F)C(=O)N(C[C@@]1(c3cc4ncc(C(N)=O)cc4o3)NC(=O)N(COC(=O)C(C)(C)C)C1=O)C2 [Compound 19] | 94 nM·h | 101
12 | COc1ccc2c(c1)C(=O)N(C[C@@]1(c3cc4nc(N5CCCNC5=O)ccc4o3)NC(=O)N(COC(=O)C(C)(C)C)C1=O)C2 [Compound 20] | 148 nM·h | 282
13 | COc1ccc2c(c1)C(=O)N(C[C@@]1(c3cc4nc(N5CC[C@@H](O)C5)ccc4o3)NC(=O)N(COC(=O)C(C)(C)C)C1=O)C2 [Compound 21] | 2684 nM·h | 339
14 | COc1ccc2c(c1F)C(=O)N(C[C@@]1(c3cc4c(OC(C)=O)nccc4o3)NC(=O)N(COC(=O)C(C)(C)C)C1=O)C2 [Compound 22] | 823 nM·h | 2820
15 | CCN1CCN(c2ccc3oc([C@]4(CN5Cc6ccc(OC)cc6C5=O)NC(=O)N(COC(=O)C(C)(C)C)C4=O)cc3n2)CC1 [Compound 24] | 655 nM·h | 176
16 | COc1ccc2c(c1)C(=O)N(C[C@@]1(C#Cc3ccc(N4CCNCC4)cc3)NC(=O)N(COC(=O)C(C)(C)C)C1=O)C2 [Compound 25] | 0 nM·h | 212
17 | COc1ccc2c(c1)C(=O)N(C[C@@]1(c3cc4nc(NS(C)(=O)=O)ccc4o3)NC(=O)N(COC(=O)C(C)(C)C)C1=O)C2 [Compound 26] | 0 nM·h | 645
18 | COc1ccc2c(c1)C(=O)N(C[C@@]1(c3cc4cc(-c5cc(=O)[nH]c(N)n5)ccc4o3)NC(=O)N(COC(=O)C(C)(C)C)C1=O)C2 [Compound 27] | 0 nM·h | 940
19 | COc1ccc2c(c1)C(=O)N(C[C@@]1(c3cc4nc(N5CCNCC5)ccc4o3)NC(=O)N(COC(=O)C(C)(C)C)C1=O)C2 [Compound 28] | 0 nM·h | 156
20 | COc1ccc2c(c1F)C(=O)N(C[C@@]1(c3cc4cc(-c5cc(=O)[nH]c(N)n5)ccc4o3)NC(=O)N(COC(=O)C(C)(C)C)C1=O)C2 [Compound 29] | 0 nM·h | 199
21 | COc1ccc2c(c1)C(=O)N(C[C@@]1(c3cc4nc(N5C[C@H](O)CC5=O)ccc4o3)NC(=O)N(COC(=O)C(C)(C)C)C1=O)C2 [Compound 31] | 334 nM·h | 224
22 | COc1ccc2c(c1)C(=O)N(C[C@@]1(c3cc4cc(-c5cc(=O)[nH]c(N)n5)cnc4o3)NC(=O)N(COC(=O)C(C)(C)C)C1=O)C2 [Compound 33] | 0 nM·h | 375

Row | Structure (SMILES) | PK (rrAUC) parent [1] | IC50 [2] [nM]
23 | COc1ccc2c(c1)C(=O)N(C[C@@]1(c3cc4nc(Nc5cccnc5)ccc4o3)NC(=O)N(COC(=O)C(C)(C)C)C1=O)C2 [Compound 34] | 94 nM·h | 1330
24 | COc1ccc2c(c1)C(=O)N(C[C@@]1(c3cc4cnccc4o3)NC(=O)N(COC(=O)[C@H](N)C(C)C)C1=O)C2 [Compound 35.3] | 4316 nM·h | 244
25 | COc1ccc2c(c1F)C(=O)N(C[C@@]1(C#Cc3cncc(NC(=O)C4CCN(C)CC4)c3)NC(=O)N(COC(=O)C(C)(C)C)C1=O)C2 [Compound 36] | 0 nM·h | 171
26 | COc1ccc2c(c1F)C(=O)N(C[C@@]1(c3cc4nc(N5C[C@H](O)CC5=O)ccc4o3)NC(=O)N(COC(=O)C(C)(C)C)C1=O)C2 [Compound 37] | 0 nM·h | 148
27 | COc1ccc2c(c1F)C(=O)N(C[C@@]1(c3cc4nc(N5C[C@@H](O)CC5=O)ccc4o3)NC(=O)N(COC(=O)C(C)(C)C)C1=O)C2 [Compound 38] | 1736 nM·h | 94
28 | CCOc1ccc2c(c1F)C(=O)N(C[C@@]1(c3cc4nc(N5CCN(CC)CC5)ccc4o3)NC(=O)N(COC(=O)C(C)(C)C)C1=O)C2 [Compound 39] | 927 nM·h | 241
29 | COc1ccc2c(c1)C(=O)N(C[C@@]1(C#Cc3ccc(-c4nc(-c5cnn(C)c5)ccc4OC(=O)C(C)(C)C)cc3)NC(=O)N(COC(=O)C(C)(C)C)C1=O)C2 [Compound 43] | 0 nM·h | 336
30 | COc1ccc2c(c1F)C(=O)N(C[C@@]1(C#Cc3ccc(-c4nc(-c5cnn(C)c5)ccc4OC(=O)C(C)(C)C)c(F)c3)NC(=O)N(COC(=O)C(C)(C)C)C1=O)C2 [Compound 44] | 0 nM·h | 281
31 | COc1ccc2c(c1)C(=O)N(C[C@@]1(c3cc4ncccc4o3)NC(=O)N(C(C)C)C1=O)C2 [Compound 51] | 370 nM·h | 7150
32 | COc1ccc2c(c1)C(=O)N(C[C@@]1(c3cc4cnccc4o3)NC(=O)N(COC(=O)OC3CCOCC3)C1=O)C2 [Compound 59] | 13539 nM·h | 184
33 | COc1ccc2c(c1)C(=O)N(C[C@@]1(c3cc4cnccc4o3)NC(=O)N(C(C)OC(=O)OC3CCOCC3)C1=O)C2 (some centres unmarked) [Compound 61] | 0 nM·h | 685
34 | COc1ccc2c(c1)C(=O)N(C[C@@]1(c3cc4cnccc4o3)NC(=O)N(COC(=O)OC(C)C)C1=O)C2 [Compound 62] | 0 nM·h | 250
35 | COc1ccc2c(c1)C(=O)N(C[C@@]1(c3cc4cnccc4o3)NC(=O)N(COC(=O)OCC3COCO3)C1=O)C2 (some centres unmarked) [Compound 63.1] | 0 nM·h | 449
36 | CCOC(=O)[C@H](C)OC(=O)OCN1C(=O)N[C@@](CN2Cc3ccc(OC)cc3C2=O)(c2cc3cnccc3o2)C1=O [Compound 63.2] | 0 nM·h | 738
37 | COc1ccc2c(c1)C(=O)N(C[C@@]1(c3cc4cnccc4o3)NC(=O)N(COC(=O)OC3CCN(C)CC3)C1=O)C2 [Compound 63.3] | 13539 nM·h | 1400
38 | COc1ccc2c(c1)C(=O)N(C[C@@]1(c3cc4cnccc4o3)NC(=O)N(COC(=O)OCCN(C)C)C1=O)C2 [Compound 63.4] | 1604 nM·h | 427
39 | COc1ccc2c(c1F)C(=O)N(C[C@@]1(c3cc4cc5c(c(F)c4o3)C(=O)NC5)NC(=O)N(COC(=O)c3ccccc3)C1=O)C2 [Compound 64] | 5393 nM·h | 169
40 | COc1ccc2c(c1)C(=O)N(C[C@@]1(c3cc4ncccc4o3)NC(=O)N(COC(=O)c3ccccc3OC(C)=O)C1=O)C2 [Compound 65] | 4426 nM·h | 560
41 | COc1ccc2c(c1)C(=O)N(C[C@@]1(c3cc4cnccc4o3)NC(=O)N(COC(=O)c3cccnc3)C1=O)C2 [Compound 67] | 3448 nM·h | 504
42 | COc1ccc2c(c1)C(=O)N(C[C@@]1(c3cc4cnccc4o3)NC(=O)N(COC(=O)N3CCN(C)CC3)C1=O)C2 [Compound 68] | 13539 nM·h | 1310
43 | COc1ccc2c(c1)C(=O)N(C[C@@]1(c3cc4cnccc4o3)NC(=O)N(CN(C)C(=O)C(C)(C)C)C1=O)C2 [Compound 76.2] | 310 nM·h | 754

From patent US8859529B2, “Compounds for the treatment of inflammatory disorders” (Merck Sharp & Dohme Corp., priority 2008, dated 2014)
